# Test results as given in US20100210649A1, “PYRIDAZINONES AND FURAN-CONTAINING COMPOUNDS” (Sloan-Kettering Institute for Cancer Research, priority 2006, published 2010).
# Key:
# [1] = system: H2030 cells; test: Cell cycle analysis (FACS), H2030; type: cell-based, human; conditions: 24 hours
# Procedure: FIGS. 2A-2B. SKI-267077 induces cell cycle arrest. H2030 cells were treated with SKI-267077 for 24 h. Cell cycle progression was analyzed by FACS analysis. FIG. 2A: Percent of cells in S-phase. FIG. 2B: percent of cells in G1 phase.
# Cell cycle analysis. For cell cycle analysis, cells were plated at a density of 500,000 cells per well in 6-well plates. Attached cells were treated with drugs for 24 h. Cells were then collected, washed with PBS and fixed in 70% ethanol for 1 h. For FACS analysis, fixed cells were washed with cold PBS resuspended in PBS containing 200 μg/mL propidium iodide and 0.1% sodium citrate. Flow cytometry was performed on a Becton-Dickinson FACSCalibur flow cytometer and data the processed using FlowJo software.
# SKI-267077 induces cell cycle arrest at the G1 phase. Cell cycle progression in the presence of SKI-267077 was determined by FACS analysis of H2030 cells that were treated for 24 hours.
# [2] = system: caspase 3/7; test: Caspase 3/7 enzyme activity assay in cell extracts; type: cell-based, human; conditions: H2030 cells, 1 μM, 48 h, whole cell extracts
# Procedure: FIG. 3. Activation of caspase 3/7 by SKI-267077. H2030 cells were treated with 1 μM SKI-267077 for 48 h and then caspase 3/7 activity measured in whole cell extracts.
# Caspase 3/7 enzyme activity assay. Apoptosis was determined by measuring the enzymatic activity of caspase 3/7 in cell homogenates. Cells were plated at a density of 10,000 cells per well in 96-well plates and treated immediately with drugs for 24-72 h. Caspase 3/7 activity will be determined in cell extracts using Z-DEVD-R110 (rhodamine 110 conjugated to the caspase substrate Z-DEVD) as substrate (Promega). The fluorescence of the cleaved substrate was measured using a micro-titer fluorescence plate reader (Ex: 499 nm, Em: 521 nm).
# SKI-267077 stimulates the enzymatic activity of caspase 3/7.
smiles,measurement,setting,value
O=c1c(Cl)c(Cl)cnn1-c1ccc(Cl)cc1Cl [compound 267077],percent of cells in the G1 phase,[1],increase in the percent of cells in the induce G1 phase
same,percent of cells in the S phase,[1],reduction of the percent of cells in the S phase
same,activity of caspase 3/7,[2],increase in the activity of caspase 3/7
